# What was measured:
# [1] = system: Brevibacterium monooxygenase 1 (ORF 1.3); assay: Spectrophotometric monooxygenase assay (NADPH oxidation at 340 nm), substrate specificity for cyclic ketones, monooxygenase 1; assay type: biochemical, Brevibacterium sp HCU; settings: NADPH 0.3 mM, pH7, 30° C., activities below 2.0 could reflect contaminants
# Method: (§1) The cyclohexanone monooxygenase activity of each overexpressed enzyme was assayed spectrophotometrically at 340 nm by monitoring the oxidation of NADPH. In a spectrophotometer cuvette containing 50 mM Tris-HCl, 50 mM K Acetate pH7 at 30° C. NADPH 0.3 mM and 20-50 μg of homogenous monooxygenase the reaction was initiated by the addition of 1 mM of cyclohexanone. Substrate specificity of each enzyme was tested with other cyclic ketones added at 0.1 or 0.5 mM.
# (§2) Expression of the His6-tagged proteins was done by growing the cells carrying the expression plasmids in 1 l of Luria-Bertani broth (Miller 1972) containing Ampicillin (100 μg/ml) and tetracyclin (10 μg/ml) at 28° C. Riboflavin (1 μg/ml) was also added to the medium since both monooxygenases are flavoproteins. When the absortion reached 0.5 at 600 nm, 1 mM isopropy-thio-b-galactoside (IPTG) was added to the culture. Cells were harvested 1.5 hr later, resuspended in 2 ml of 300 mM NaCl 5% glycerol 20 mM Tris-HCl pH 8.0 (Buffer A) containing 10 mM EDTA and 100 μg lysozyme and disrupted by three freeze/thaw cycles. Nucleic acids were digested by addition of MgCl2 (20 mM) RNAseA and DNAse I (10 μg each). The particulate fraction was removed by centrifugation at 14,000 RPM and the supernatant was mixed for 1 hr at 4° C. with 100 μl of a metal chelation agarose (Ni-NTA Superflow Qiagen, Valencia, Calif.) saturated with Ni(II) and equilibrated Buffer A containing 5 mM imidazole. The resin was washed bathchwise with 10 ml each of Buffer A containing 5, 10, 15, 20, 40, 80, 150 and 300 mM respectively. The bound proteins were eluted between 80 and 150 mM imidazole. Eluted proteins were concentrated by ultrafiltration with a Centricon device (cut off 10,000 Da, Amicon) and the buffer replaced by Buffer A. Homogeneity of the overexpressed proteins is shown in FIG. 3, which show a gel electrophoresis separation of proteins from control E. coli (lane 1), E. coli expressing ORF 1.3 (lane 2) and E. coli expressing ORF 2.4 (lane 3).
# (§3) Each monooxygenase oxidized cyclohexanone as measured spectrophoto-metrically by monitoring the oxidation of NADPH at 340 nm. No activity was observed when NADPH was replaced by NADH. The product of the cyclohexanone oxidation was confirmed to be caprolactone by GC-MS analysis. Monooxygenase 1 and 2 have different substrate specificity relative to the number of carbon atoms, the oxidation or the substitution of the ring.
# [2] = system: Brevibacterium monooxygenase 2 (ORF 2.4); assay: Spectrophotometric monooxygenase assay (NADPH oxidation at 340 nm), substrate specificity for cyclic ketones, monooxygenase 2; assay type: biochemical, Brevibacterium sp HCU; settings: NADPH 0.3 mM, pH7, 30° C., activities below 2.0 could reflect contaminants
# Method: as §1, §2, §3
# [3] = system: E. coli strains carrying plasmids pPCB1 and pPCB2 that express the monooxygenase ORF 1.3 and ORF 2.4; assay: Conversion of cyclohexanone into caprolactone by cell suspensions, GC-MS; assay type: cell-based; settings: 100 ppm cyclohexanone, M9 medium with 0.2% glucose, IPTG-induced cells (FIG. 5)
# Method: Confirmation of the oxidation of cyclohexanone into caprolactone was determined by GC-Mass Spectrometry on a HP 5890 Gas Chromatograph with HP 5971 mass selective detector equipped with a HP-1 capillary column (Hewlett Packard). Prior to analysis, samples were acidified to pH 3 by HCl, extracted by dichloromethane three times, dried with MgSO4 and filtered.
# Twenty ml cultures of E. coli strains carrying plasmids pPCB1 and pPCB2 that express the monooxygenase ORF 1.3 and ORF 2.4 respectively were grown at 30° C. in LB medium containing Ampicillin (100 μg/ml) and tetracyclin (10 μg/ml). When the absorbance reached 0.1 at 600 nm, 1 mM IPTG was added to the culture to induce the monooxygenases. After 1 hr, the cultures were chilled and washed twice with M9 mineral medium (Sambrook, J., Fritsch, E. F. and Maniatis, T. Molecular Cloning: A Laboratory Manual, Second Edition, Cold Spring Harbor Laboratory Press, Cold Spring Harbor (1989)) and resuspended in 2 ml of the same medium containing 0.2% glucose and 100 ppm of cyclohexanone. After one hr the cells were removed from the culture by centrifugation and supernatant was analyzed by GC-MS as described in the General Methods. The GC-MS analysis indicated the disappearance of cyclohexanone and the appearance of caprolactone. […]
Mono 1 rate ([1]; substrate 0.1 mM) [min⁻¹],Mono 1 rate ([1]; substrate 0.5 mM) [min⁻¹],Mono 2 rate ([2]; substrate 0.1 mM) [min⁻¹],Mono 2 rate ([2]; substrate 0.5 mM) [min⁻¹],Compound,time until all cyclohexanone was oxidized [3]
9,52,7.6,34,"O=C1CCCCC1=O [1,2-cyclohexanedione]",–
0.3,1.2,18,60,"O=C1CCCC(=O)C1 [1,3-cyclohexanedione]",–
130,210,53,88,"O=C1CCC(=O)CC1 [1,4-cyclohexanedione]",–
250,260,37,97,CC1CCCCC1=O (centres unmarked) [2-methylcyclohexanone],–
40,110,120,110,CC1CCCC1=O (centres unmarked) [2-methylcyclopentanone],–
–,1,1.8,1.2,O=C1CCCCCCCCC1 [cyclodecanone],–
4.5,18,3.9,8.6,O=C1CCCCCC1 [cycloheptanone],–
2.3,1.9,64,80,O=C1C=CCCC1 [cyclohex-2-ene-1-one],–
1.2,7.0,90,120,O=C1CCCC1 [cyclopentanone],–
1.2,1.4,0.6,0.9,O=C1CCCCCCCCCC1 [cycloundecanone],–

Compound,Mono 1 rate ([1]; substrate 0.1 mM) [min⁻¹],Mono 1 rate ([1]; substrate 0.5 mM) [min⁻¹],Mono 2 rate ([2]; substrate 0.1 mM) [min⁻¹],Mono 2 rate ([2]; substrate 0.5 mM) [min⁻¹],time until all cyclohexanone was oxidized [3]
O=C1CCCCC1C1=CCCCC1 (centres unmarked) [2-(cyclohex-1-enyl)cyclohexanone],160,260,–,2.4,–
O=C1CCC1 [cyclobutanone],235,171,92,96,–
O=C1CCCCCCCCCCC1 [cyclododecanone],1,0.9,1.2,1.8,–
O=C1CCCCC1 [cyclohexanone],160,290,100,100,about 75 min
O=C1CCCCCCC1 [cyclooctanone],0.9,0.4,1.3,1.3,–
